# Test results as given in ChEMBL document CHEMBL3044999, “Chemical basis for the antifeedant activity of natural hydroxamic acids and related compounds” (2004).
# Tested on: Rhopalosiphum padi
# Assay: Antifeedant activity against third-instar larvae of Rhopalosiphum padi assessed as repellency index after 24 hr by feeding choice assay
# Assay type: functional
# Design: concentration or dose not given beside the values
row,SMILES,Activity [%]
1,COc1ccc2c(c1)OC(O)C(=O)N2 (configuration not stated),35
2,COc1ccc2c(c1)OC(OC)C(=O)N2O (configuration not stated),33.3
3,COc1ccc2c(c1)OCC(=O)N2,18
4,O=C1COc2ccccc2N1,17
5,O=C(O)c1ccc2c(c1)OCC(=O)N2O,2.5
6,COc1ccc2c(c1)OCC(=O)N2O,52
7,COC1Oc2ccccc2N(O)C1=O (configuration not stated),0
8,O=C1Nc2ccccc2OC1O (configuration not stated),38
9,O=C1C(O)Oc2ccccc2N1O (configuration not stated),92.3
10,O=C1COc2ccccc2N1O,26
11,COC(=O)c1ccc2c(c1)OCC(=O)N2O [7-MeOCO-D-DIBOA],32
12,COc1ccc2c(c1)OC(O)C(=O)N2O (configuration not stated),74
